Measured values reported in PubChem BioAssay (NCI).
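Following 48 hours of exposure in 96-well plates, responses at five concentrations were used to interpolate endpoints linearly. Definition used: TGI = concentration required for complete inhibition of growth.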

Assays:
Assay in all cases: NCI anticancer screen, dose series, 48 h
TK-10 renal = system: TK-10 renal
EKVX NSCLC = system: EKVX NSCLC
PC-3 prostate = system: PC-3 prostate
NCI-H226 lung = system: NCI-H226 lung
HOP-62 NSCLC = system: HOP-62 NSCLC
HCC-2998 colon = system: HCC-2998 colon
M14 melanoma = system: M14 melanoma
RPMI-8226 leukemia = system: RPMI-8226 leukemia
HCT-15 colon = system: HCT-15 colon
UACC-257 melanoma = system: UACC-257 melanoma
MALME-3M melanoma = system: MALME-3M melanoma
HCT-116 colon = system: HCT-116 colon
BT-549 breast = system: BT-549 breast
SF-295 CNS = system: SF-295 CNS
NCI-H23 lung = system: NCI-H23 lung
K-562 leukemia = system: K-562 leukemia
MDA-MB-231 breast = system: MDA-MB-231 breast
HT29 colon = system: HT29 colon
RXF 393 renal = system: RXF 393 renal
SN12C renal = system: SN12C renal
MDA-MB-435 = system: MDA-MB-435
OVCAR-4 ovarian = system: OVCAR-4 ovarian
DU-145 prostate = system: DU-145 prostate
OVCAR-5 ovarian = system: OVCAR-5 ovarian
SNB-19 CNS = system: SNB-19 CNS
UO-31 renal = system: UO-31 renal
SK-MEL-2 melanoma = system: SK-MEL-2 melanoma
OVCAR-3 ovarian = system: OVCAR-3 ovarian
LOX IMVI melanoma = system: LOX IMVI melanoma
SK-OV-3 ovarian = system: SK-OV-3 ovarian
U251 CNS = system: U251 CNS
MDA-N = system: MDA-N
MOLT-4 leukemia = system: MOLT-4 leukemia
KM12 colon = system: KM12 colon
NCI-H522 lung = system: NCI-H522 lung
SK-MEL-5 melanoma = system: SK-MEL-5 melanoma
SW-620 colon = system: SW-620 colon
SR leukemia = system: SR leukemia
MCF7 breast = system: MCF7 breast
SF-268 CNS = system: SF-268 CNS
786-0 renal = system: 786-0 renal
SK-MEL-28 melanoma = system: SK-MEL-28 melanoma
NCI/ADR-RES ovarian = system: NCI/ADR-RES ovarian
OVCAR-8 ovarian = system: OVCAR-8 ovarian
HOP-92 NSCLC = system: HOP-92 NSCLC
HS 578T breast = system: HS 578T breast
A549 NSCLC = system: A549 NSCLC
ACHN renal = system: ACHN renal
SNB-75 CNS = system: SNB-75 CNS
T-47D breast = system: T-47D breast
COLO 205 colon = system: COLO 205 colon
IGROV1 ovarian = system: IGROV1 ovarian
A498 renal = system: A498 renal
CAKI-1 renal = system: CAKI-1 renal
UACC-62 melanoma = system: UACC-62 melanoma
SF-539 CNS = system: SF-539 CNS
NCI-H460 lung = system: NCI-H460 lung

Q: With `CN(C)CCn1c(=O)nc2c3c(c([N+](=O)[O-])ccc31)Nc1ccc(O)cc1-2` as the compound, how does the TGI (TK-10 renal) read?
A: Its TGI is 36 µM.

Q: What about the TGI (EKVX NSCLC) of the same compound?
A: The TGI was greater than 63.6 µM.

Q: What about the TGI (PC-3 prostate) of the same compound?
A: Its TGI is greater than 46.9 µM.

Q: What about the TGI (NCI-H226 lung) of the same compound?
A: Its TGI is 20.8 µM.

Q: What about the TGI (HOP-62 NSCLC) of the same compound?
A: Its TGI is 16.6 µM.

Q: And the TGI (HCC-2998 colon)?
A: Its TGI is 13.1 µM.

Q: And the TGI (M14 melanoma)?
A: The TGI was greater than 49.3 µM.

Q: What about the TGI (RPMI-8226 leukemia) of the same compound?
A: The TGI was 26.6 µM.

Q: What about the TGI (HCT-15 colon) of the same compound?
A: The TGI was greater than 100 µM.

Q: What about the TGI (UACC-257 melanoma) of the same compound?
A: Its TGI is greater than 54.9 µM.

Q: And the TGI (MALME-3M melanoma)?
A: The TGI was 18 µM.

Q: And the TGI (HCT-116 colon)?
A: Its TGI is 8.37 µM.

Q: And the TGI (BT-549 breast)?
A: The TGI was 37 µM.

Q: And the TGI (SF-295 CNS)?
A: The TGI was 24.8 µM.

Q: And the TGI (NCI-H23 lung)?
A: The TGI was 33.4 µM.

Q: What about the TGI (K-562 leukemia) of the same compound?
A: The TGI was greater than 25.7 µM.

Q: And the TGI (MDA-MB-231 breast)?
A: Its TGI is 10.2 µM.

Q: What about the TGI (HT29 colon) of the same compound?
A: Its TGI is 15.3 µM.

Q: And the TGI (RXF 393 renal)?
A: The TGI was 10.5 µM.

Q: What about the TGI (SN12C renal) of the same compound?
A: The TGI was 17.1 µM.

Q: And the TGI (MDA-MB-435)?
A: Its TGI is 46.6 µM.

Q: What about the TGI (OVCAR-4 ovarian) of the same compound?
A: Its TGI is greater than 42.7 µM.

Q: And the TGI (DU-145 prostate)?
A: The TGI was greater than 47.5 µM.

Q: And the TGI (OVCAR-5 ovarian)?
A: The TGI was greater than 81.2 µM.

Q: And the TGI (SNB-19 CNS)?
A: Its TGI is 16.8 µM.

Q: What about the TGI (UO-31 renal) of the same compound?
A: Its TGI is 28.7 µM.

Q: And the TGI (SK-MEL-2 melanoma)?
A: The TGI was 33.6 µM.

Q: What about the TGI (OVCAR-3 ovarian) of the same compound?
A: Its TGI is 15.3 µM.

Q: What about the TGI (LOX IMVI melanoma) of the same compound?
A: The TGI was 3.15 µM.

Q: And the TGI (SK-OV-3 ovarian)?
A: Its TGI is 35.1 µM.

Q: What about the TGI (U251 CNS) of the same compound?
A: Its TGI is 6.26 µM.

Q: And the TGI (MDA-N)?
A: Its TGI is 23.7 µM.

Q: What about the TGI (MOLT-4 leukemia) of the same compound?
A: The TGI was 3.6 µM.

Q: What about the TGI (KM12 colon) of the same compound?
A: The TGI was greater than 27.5 µM.

Q: And the TGI (NCI-H522 lung)?
A: The TGI was 6.13 µM.

Q: What about the TGI (SK-MEL-5 melanoma) of the same compound?
A: The TGI was 20.1 µM.

Q: What about the TGI (SW-620 colon) of the same compound?
A: Its TGI is greater than 42.6 µM.

Q: And the TGI (SR leukemia)?
A: The TGI was 8.92 µM.

Q: And the TGI (MCF7 breast)?
A: The TGI was 5.68 µM.

Q: What about the TGI (SF-268 CNS) of the same compound?
A: Its TGI is 17.1 µM.

Q: What about the TGI (786-0 renal) of the same compound?
A: Its TGI is 6.52 µM.

Q: What about the TGI (SK-MEL-28 melanoma) of the same compound?
A: Its TGI is 32.7 µM.

Q: And the TGI (NCI/ADR-RES ovarian)?
A: Its TGI is greater than 100 µM.

Q: What about the TGI (OVCAR-8 ovarian) of the same compound?
A: The TGI was 11.4 µM.

Q: What about the TGI (HOP-92 NSCLC) of the same compound?
A: The TGI was 16.2 µM.

Q: And the TGI (HS 578T breast)?
A: The TGI was 22.4 µM.

Q: What about the TGI (A549 NSCLC) of the same compound?
A: The TGI was 27.8 µM.

Q: What about the TGI (ACHN renal) of the same compound?
A: Its TGI is 17.4 µM.

Q: What about the TGI (SNB-75 CNS) of the same compound?
A: Its TGI is 21.2 µM.

Q: What about the TGI (T-47D breast) of the same compound?
A: The TGI was 6.48 µM.

Q: And the TGI (COLO 205 colon)?
A: Its TGI is 14.5 µM.

Q: And the TGI (IGROV1 ovarian)?
A: Its TGI is 12.3 µM.

Q: What about the TGI (A498 renal) of the same compound?
A: Its TGI is 23.4 µM.

Q: And the TGI (CAKI-1 renal)?
A: The TGI was greater than 45.7 µM.

Q: What about the TGI (UACC-62 melanoma) of the same compound?
A: Its TGI is 23.2 µM.

Q: What about the TGI (SF-539 CNS) of the same compound?
A: The TGI was 8.36 µM.

Q: What about the TGI (NCI-H460 lung) of the same compound?
A: Its TGI is 15.6 µM.
